Patent US20240132431A1, “METHOD FOR ALKYLATING ACIDIC FUNCTIONAL GROUP” (Chugai Seiyaku Kabushiki Kaisha, priority 2021, published 2024)

Target: T1, Bcl-2 protein (Recombinant Human Bcl-2 Protein) (Homo sapiens, UniProt P10415)
T1 construct: purchased Novus NBP2-34889
Test: Binding evaluation of mixture library compounds to Bcl-2 using AS-MS (affinity selection mass spectrometry)
Conditions: AS-MS, mixture library, Bcl-2, ASMS Ratio(%)=(A−C)/B×100; for ASMS ratio (%) n = 1: replicate n = 1; for ASMS ratio (%) n = 2: replicate n = 2
Summary of the method: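 ASMS Ratio (%) was calculated as (A−C)/B×100, where A is the protein sample after SEC, B the protein-free sample without SEC and C the protein-free sample after SEC. Each compound was at […] in a 1200-member pool with 20 μM Bcl-2, incubated 1 h at 23° C.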

T1 sequence (P10415 whole entry): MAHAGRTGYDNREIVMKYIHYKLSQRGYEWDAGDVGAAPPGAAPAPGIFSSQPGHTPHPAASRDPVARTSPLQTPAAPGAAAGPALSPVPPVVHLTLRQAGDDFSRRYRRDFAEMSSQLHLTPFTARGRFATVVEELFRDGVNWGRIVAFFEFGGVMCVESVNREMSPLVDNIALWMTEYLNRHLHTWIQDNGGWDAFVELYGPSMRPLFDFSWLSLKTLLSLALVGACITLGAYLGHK

| Structure (SMILES) | ASMS ratio (%) n = 1 [%] | ASMS ratio (%) n = 2 [%] |
| --- | --- | --- |
| CCOc1cncc(C#Cc2cncc(C(=O)N3CCN(c4ccc(C(=O)NS(=O)(=O)c5ccc(NCCSc6ccccc6)c([N+](=O)[O-])c5)nn4)CC3)c2)c1 [B2Q010-01, 6-[4-[5-[2-(5-Ethoxypyridin-3-yl)ethynyl]pyridine-3-carbonyl]piperazin-1-yl]-N-[3-nitro-4-(2-phenylsulfanylethylamino)phenyl]sulfonylpyridazine-3-carboxamide] | 13.3 | 8.9 |
| CCOc1cccc(-c2ccccc2CCC(=O)N2CCN(c3ccc(C(=O)NS(=O)(=O)c4ccc(NCCSc5ccccc5)c([N+](=O)[O-])c4)nn3)CC2)c1 [B2Q011-01, 6-[4-[3-[2-(3-Ethoxyphenyl)phenyl]propanoyl]piperazin-1-yl]-N-[3-nitro-4-(2-phenylsulfanylethylamino)phenyl]sulfonylpyridazine-3-carboxamide] | 25.0 | −1.1 |
| CCOc1cccc(-c2ccc(C(=O)N3CCN(c4ccc(C(=O)NS(=O)(=O)c5ccc(NCCSc6ccccc6)c([N+](=O)[O-])c5)nn4)CC3)c3ccccc23)c1 [B2Q013-01, 6-[4-[4-(3-Ethoxyphenyl)naphthalene-1-carbonyl]piperazin-1-yl]-N-[3-nitro-4-(2-phenylsulfanylethylamino)phenyl]sulfonylpyridazine-3-carboxamide] | 0.0 | 0.0 |
| CCOc1cncc(-c2ccc(C(=O)N3CCN(c4ccc(C(=O)NS(=O)(=O)c5ccc(NCCSc6ccccc6)c([N+](=O)[O-])c5)nn4)CC3)c3ccccc23)c1 [B2Q014-01, 6-[4-[4-(5-Ethoxypyridin-3-yl)naphthalene-1-carbonyl]piperazin-1-yl]-N-[3-nitro-4-(2-phenylsulfanylethylamino)phenyl]sulfonylpyridazine-3-carboxamide] | 9.3 | 14.5 |
| CCOc1cccc(-c2cc(C(=O)N3CCN(c4ccc(C(=O)NS(=O)(=O)c5ccc(NCCSc6ccccc6)c([N+](=O)[O-])c5)nn4)CC3)cc(C(C)(C)C)c2)c1 [B2Q015-01, 6-[4-[3-tert-Butyl-5-(3-ethoxyphenyl)benzoyl]piperazin-1-yl]-N-[3-nitro-4-(2-phenylsulfanylethylamino)phenyl]sulfonylpyridazine-3-carboxamide] | 17.1 | 13.2 |
| CCOc1cncc(-c2cc(C(=O)N3CCN(c4ccc(C(=O)NS(=O)(=O)c5ccc(NCCSc6ccccc6)c([N+](=O)[O-])c5)nn4)CC3)cc(C(C)(C)C)c2)c1 [B2Q016-01, 6-[4-[3-tert-Butyl-5-(5-ethoxypyridin-3-yl)benzoyl]piperazin-1-yl]-N-[3-nitro-4-(2-phenylsulfanylethylamino)phenyl]sulfonylpyridazine-3-carboxamide] | 10.6 | 6.5 |
| CCOc1cccc(-c2cc(C(=O)N3CCN(c4ccc(C(=O)NS(=O)(=O)c5ccc(NCCSc6ccccc6)c([N+](=O)[O-])c5)nn4)CC3)cc(C(F)(F)F)c2)c1 [B2Q017-01, 6-[4-[3-(3-Ethoxyphenyl)-5-(trifluoromethyl)benzoyl]piperazin-1-yl]-N-[3-nitro-4-(2-phenylsulfanylethylamino)phenyl]sulfonylpyridazine-3-carboxamide] | 12.8 | 0.2 |
| CCOc1cncc(-c2cc(C(=O)N3CCN(c4ccc(C(=O)NS(=O)(=O)c5ccc(NCCSc6ccccc6)c([N+](=O)[O-])c5)nn4)CC3)cc(C(F)(F)F)c2)c1 [B2Q018-01, 6-[4-[3-(5-Ethoxypyridin-3-yl)-5-(trifluoromethyl)benzoyl]piperazin-1-yl]-N-[3-nitro-4-(2-phenylsulfanylethylamino)phenyl]sulfonylpyridazine-3-carboxamide] |  | 0.0 |
| CCOc1cccc(C#Cc2cc(C(=O)N3CCN(c4ccc(C(=O)NS(=O)(=O)c5ccc(NCCSc6ccccc6)c([N+](=O)[O-])c5)nn4)CC3)cc(C(F)(F)F)c2)c1 [B2Q019-01, 6-[4-[3-[2-(3-Ethoxyphenyl)ethynyl]-5-(trifluoromethyl)benzoyl]piperazin-1-yl]-N-[3-nitro-4-(2-phenylsulfanylethylamino)phenyl]sulfonylpyridazine-3-carboxamide] | 0.7 | 14.1 |
| CCOc1cncc(C#Cc2cc(C(=O)N3CCN(c4ccc(C(=O)NS(=O)(=O)c5ccc(NCCSc6ccccc6)c([N+](=O)[O-])c5)nn4)CC3)cc(C(F)(F)F)c2)c1 [B2Q020-01, 6-[4-[3-[2-(5-Ethoxypyridin-3-yl)ethynyl]-5-(trifluoromethyl)benzoyl]piperazin-1-yl]-N-[3-nitro-4-(2-phenylsulfanylethylamino)phenyl]sulfonylpyridazine-3-carboxamide] | 6.1 | 5.6 |
| CCOc1cccc(-c2cnn(-c3cc(C(=O)N4CCN(c5ccc(C(=O)NS(=O)(=O)c6ccc(NCCSc7ccccc7)c([N+](=O)[O-])c6)nn5)CC4)cc(C(F)(F)F)c3)c2)c1 [B2Q021-01, 6-[4-[3-[4-(3-Ethoxyphenyl)pyrazol-1-yl]-5-(trifluoromethyl)benzoyl]piperazin-1-yl]-N-[3-nitro-4-(2-phenylsulfanylethylamino)phenyl]sulfonylpyridazine-3-carboxamide] | 0.0 | 0.0 |
| CCOc1cncc(-c2cnn(-c3cc(C(=O)N4CCN(c5ccc(C(=O)NS(=O)(=O)c6ccc(NCCSc7ccccc7)c([N+](=O)[O-])c6)nn5)CC4)cc(C(F)(F)F)c3)c2)c1 [B2Q022-01, 6-[4-[3-[4-(5-Ethoxypyridin-3-yl)pyrazol-1-yl]-5-(trifluoromethyl)benzoyl]piperazin-1-yl]-N-[3-nitro-4-(2-phenylsulfanylethylamino)phenyl]sulfonylpyridazine-3-carboxamide] | 13.8 | 23.6 |
| CCOc1cccc(-c2csc(C(=O)N3CCN(c4ccc(C(=O)NS(=O)(=O)c5ccc(NCCSc6ccccc6)c([N+](=O)[O-])c5)cc4)CC3)c2)c1 [B2Q023-01, 4-[4-[4-(3-Ethoxyphenyl)thiophene-2-carbonyl]piperazin-1-yl]-N-[3-nitro-4-(2-phenylsulfanylethylamino)phenyl]sulfonylbenzamide] | 0.0 | 0.0 |
| CCOc1cncc(-c2csc(C(=O)N3CCN(c4ccc(C(=O)NS(=O)(=O)c5ccc(NCCSc6ccccc6)c([N+](=O)[O-])c5)cc4)CC3)c2)c1 [B2Q024-01, 4-[4-[4-(5-Ethoxypyridin-3-yl)thiophene-2-carbonyl]piperazin-1-yl]-N-[3-nitro-4-(2-phenylsulfanylethylamino)phenyl]sulfonylbenzamide] | 4.5 | 7.5 |
| CCOc1cccc(-c2ccc(C(=O)N3CCN(c4ccc(C(=O)NS(=O)(=O)c5ccc(NCCSc6ccccc6)c([N+](=O)[O-])c5)cc4)CC3)cc2C)c1 [B2Q025-01, 4-[4-[4-(3-Ethoxyphenyl)-3-methylbenzoyl]piperazin-1-yl]-N-[3-nitro-4-(2-phenylsulfanylethylamino)phenyl]sulfonylbenzamide] | −5.7 | 0.0 |
| CCOc1cncc(-c2ccc(C(=O)N3CCN(c4ccc(C(=O)NS(=O)(=O)c5ccc(NCCSc6ccccc6)c([N+](=O)[O-])c5)cc4)CC3)cc2C)c1 [B2Q026-01, 4-[4-[4-(5-Ethoxypyridin-3-yl)-3-methylbenzoyl]piperazin-1-yl]-N-[3-nitro-4-(2-phenylsulfanylethylamino)phenyl]sulfonylbenzamide] | 4.4 | 0.4 |
| CCOc1cccc(-c2ccc(C(=O)N3CCN(c4ccc(C(=O)NS(=O)(=O)c5ccc(NCCSc6ccccc6)c([N+](=O)[O-])c5)cc4)CC3)cc2F)c1 [B2Q027-01, 4-[4-[4-(3-Ethoxyphenyl)-3-fluorobenzoyl]piperazin-1-yl]-N-[3-nitro-4-(2-phenylsulfanylethylamino)phenyl]sulfonylbenzamide] | 0.2 | −2.5 |
| CCOc1cncc(-c2ccc(C(=O)N3CCN(c4ccc(C(=O)NS(=O)(=O)c5ccc(NCCSc6ccccc6)c([N+](=O)[O-])c5)cc4)CC3)cc2F)c1 [B2Q028-01, 4-[4-[4-(5-Ethoxypyridin-3-yl)-3-fluorobenzoyl]piperazin-1-yl]-N-[3-nitro-4-(2-phenylsulfanylethylamino)phenyl]sulfonylbenzamide] | 0.0 | −3.7 |
| CCOc1cncc(C#Cc2ccccc2C(=O)N2CCN(c3ccc(C(=O)NS(=O)(=O)c4ccc(NCCSc5ccccc5)c([N+](=O)[O-])c4)cc3)CC2)c1 [B2Q030-01, 4-[4-[2-[2-(5-Ethoxypyridin-3-yl)ethynyl]benzoyl]piperazin-1-yl]-N-[3-nitro-4-(2-phenylsulfanylethylamino)phenyl]sulfonylbenzamide] | 6.6 | −4.1 |
| CCOc1cccc(C#Cc2cncc(C(=O)N3CCN(c4ccc(C(=O)NS(=O)(=O)c5ccc(NCCSc6ccccc6)c([N+](=O)[O-])c5)cc4)CC3)c2)c1 [B2Q031-01, 4-[4-[5-[2-(3-Ethoxyphenyl)ethynyl]pyridine-3-carbonyl]piperazin-1-yl]-N-[3-nitro-4-(2-phenylsulfanylethylamino)phenyl]sulfonylbenzamide] | 6.6 | −4.1 |
| CCOc1cncc(C#Cc2cncc(C(=O)N3CCN(c4ccc(C(=O)NS(=O)(=O)c5ccc(NCCSc6ccccc6)c([N+](=O)[O-])c5)cc4)CC3)c2)c1 [B2Q032-01, 4-[4-[5-[2-(5-Ethoxypyridin-3-yl)ethynyl]pyridine-3-carbonyl]piperazin-1-yl]-N-[3-nitro-4-(2-phenylsulfanylethylamino)phenyl]sulfonylbenzamide] | −0.2 | −374.2 |
